The results in this text go back to patent US20250340574A1, “MODULATORS OF CYSTIC FIBROSIS TRANSMEMBRANE CONDUCTANCE REGULATOR” (Vertex Pharmaceuticals Incorporated, priority 2022, published 2025).

The target in this test is T1, CFTR (F508del/MF-HBE cells) (Homo sapiens, UniProt P13569, DEL508-508).
T1 construct: human bronchial epithelial (HBE) cells derived from CF subjects heterozygous for F508del and a minimal function CFTR mutation (F508del/MF-HBE); endogenous in cells; host or cells: Primary human bronchial epithelial cells from CF subjects (F508del/MF genotype), differentiated at an air-liquid interface
In words: Ussing chamber assay of CFTR-mediated short-circuit currents, Assay C (0.026 μM to 25 μM, 6 concentrations). It counts as cell-based. The conditions noted are these: with 33 nM potentiator and 18 μM Tezacaftor, 20% human serum; for Emax: read-out: C Max activity (%). The method, then: Ussing chamber experiments were performed using human bronchial epithelial (HBE) cells derived from CF subjects heterozygous for F508del and a minimal function CFTR mutation (F508del/MF-HBE) and cultured as previously described (Neuberger T, Burton B, Clark H, Van Goor F Methods Mol Biol 2011:741:39-54). After four days the apical media was removed, and the cells were grown at an air liquid interface for >14 days prior to use.
To isolate the CFTR-mediated short-circuit (ISC) current, F508del/MF-HBE grown on Costar® Snapwell™ cell culture inserts were mounted in an Ussing chamber and the transepithelial ISC was measured under voltage-clamp recording conditions (Vhold=0 mV) at 37° C. The basolateral solution contained (in mM) 145 NaCl, 0.83 K2HPO4, 3.3 KH2PO4, 1.2 MgCl2, 1.2 CaCl2, 10 Glucose, 10 HEPES (pH adjusted to 7.4 with NaOH) and the apical solution contained (in mM) 145 NaGluconate, 1.2 MgCl2, 1.2 CaCl2, 10 glucose, 10 HEPES (pH adjusted to 7.4 with NaOH) and 30 μM amiloride to block the epithelial sodium channel. Forskolin (20 μM) was added to the apical surface to activate CFTR, followed by apical addition of a CFTR inhibitor cocktail consisting of BPO, GlyH-101, and CFTR inhibitor 172 (each at 20 μM final assay concentration) to specifically isolate CFTR currents. The CFTR-mediated ISC (μA/cm^2) for each condition was determined from the peak forskolin response to the steady-state current following inhibition.
The activity of the CFTR corrector compounds on the CFTR-mediated ISC was determined in Ussing chamber studies as described above. The F508del/MF-HBE cell cultures were either incubated with the corrector compounds at a range of concentrations in combination with 33 nM (6R,12R)-17-amino-12-methyl-6,15-bis(trifluoromethyl)-13,19-dioxa-3,4,18-triazatricyclo[12.3.1.12,5]nonadeca-1(18),2,4,14,16-pentaen-6-ol and 18 μM Tezacaftor or were incubated with the corrector compounds at a single fixed concentration of 1 μM in combination with 44 nM (6R,12R)-17-amino-12-methyl-6,15-bis(trifluoromethyl)-13,19-dioxa-3,4,18-triazatricyclo[12.3.1.12,5]nonadeca-1(18),2,4,14,16-pentaen-6-ol and 18 μM Tezacaftor for 18-24 hours at 37° C. and in the presence of 20% human serum. The concentration of corrector compounds with 44 nM or 33 nM (6R,12R)-17-amino-12-methyl-6,15-bis(trifluoromethyl)-13,19-dioxa-3,4,18-triazatricyclo[12.3.1.12,5]nonadeca-1(18),2,4,14,16-pentaen-6-ol and 18 μM Tezacaftor during the 18-24 hours incubations was kept constant throughout the Ussing chamber measurement of the CFTR-mediated ISC to ensure compounds were present throughout the entire experiment. The efficacy and potency of the putative F508del correctors was compared to that of the known Vertex corrector, (14S)-8-[3-(2-{Dispiro[2.0.2.1]heptan-7-yl}ethoxy)-1H-pyrazol-1-yl]-12,12-dimethyl-2λ^6-thia-3,9,11,18,23-pentaazatetracyclo[17.3.1.111,14.05,10]tetracosa-1(22),5,7,9,19(23),20-hexaene-2,2,4-trione, in combination with 18 μM Tezacaftor and 1 μM Ivacaftor.
• Assay A: 0.1 μM to 25 μM, 6 concentrations • Assay B: 0.00001 μM to 25 μM, 12 concentrations • Assay C: 0.026 μM to 25 μM, 6 concentrations • Assay D: Activity at single concentration of 1 μM

Like-named read-outs stand apart in the source and are kept apart here. Bounds are passed on as bounds.

T1 sequence (P13569 with tags, fused parts or gaps DEL508-508): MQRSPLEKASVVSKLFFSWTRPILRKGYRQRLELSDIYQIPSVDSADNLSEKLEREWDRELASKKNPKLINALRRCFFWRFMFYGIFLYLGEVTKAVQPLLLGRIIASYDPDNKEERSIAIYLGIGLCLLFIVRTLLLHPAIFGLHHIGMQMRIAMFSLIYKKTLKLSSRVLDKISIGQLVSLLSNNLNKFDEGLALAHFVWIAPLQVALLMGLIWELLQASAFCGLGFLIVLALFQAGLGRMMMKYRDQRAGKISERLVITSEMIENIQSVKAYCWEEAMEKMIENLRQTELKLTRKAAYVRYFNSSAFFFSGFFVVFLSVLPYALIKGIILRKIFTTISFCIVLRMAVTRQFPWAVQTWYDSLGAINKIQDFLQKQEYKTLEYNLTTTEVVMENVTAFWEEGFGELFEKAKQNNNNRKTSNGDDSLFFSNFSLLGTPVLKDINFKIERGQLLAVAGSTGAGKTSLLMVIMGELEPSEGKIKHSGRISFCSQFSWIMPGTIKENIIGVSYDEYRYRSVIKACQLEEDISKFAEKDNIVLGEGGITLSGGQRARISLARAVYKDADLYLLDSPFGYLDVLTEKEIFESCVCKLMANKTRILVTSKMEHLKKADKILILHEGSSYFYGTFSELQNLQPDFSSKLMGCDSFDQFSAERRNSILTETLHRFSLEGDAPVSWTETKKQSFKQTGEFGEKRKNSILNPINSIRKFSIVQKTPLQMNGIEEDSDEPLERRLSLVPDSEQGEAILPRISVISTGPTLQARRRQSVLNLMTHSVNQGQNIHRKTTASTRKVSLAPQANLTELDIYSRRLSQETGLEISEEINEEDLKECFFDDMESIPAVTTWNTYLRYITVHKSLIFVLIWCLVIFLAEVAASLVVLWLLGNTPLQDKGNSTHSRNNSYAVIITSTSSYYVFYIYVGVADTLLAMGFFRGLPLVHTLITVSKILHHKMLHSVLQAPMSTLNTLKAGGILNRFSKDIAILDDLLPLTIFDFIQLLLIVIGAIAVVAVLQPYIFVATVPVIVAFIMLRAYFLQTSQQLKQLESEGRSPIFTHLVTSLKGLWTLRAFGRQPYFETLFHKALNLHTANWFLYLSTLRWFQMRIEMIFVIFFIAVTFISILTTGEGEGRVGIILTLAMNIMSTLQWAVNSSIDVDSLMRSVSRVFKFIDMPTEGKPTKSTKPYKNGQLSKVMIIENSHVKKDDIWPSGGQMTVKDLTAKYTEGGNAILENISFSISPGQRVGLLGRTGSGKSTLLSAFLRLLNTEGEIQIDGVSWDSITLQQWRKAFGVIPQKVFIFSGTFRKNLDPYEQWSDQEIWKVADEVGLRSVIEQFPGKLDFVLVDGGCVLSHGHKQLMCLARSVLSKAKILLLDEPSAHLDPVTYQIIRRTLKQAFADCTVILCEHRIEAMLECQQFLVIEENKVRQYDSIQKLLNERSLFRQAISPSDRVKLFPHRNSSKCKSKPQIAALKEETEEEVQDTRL

As a reminder, the EC50 is the midpoint of the concentration-response curve. In the case of `CCc1cccc(CC)c1-c1nc2nc(c1C)OC[C@@H](CC(C)(C)C)N(Cc1cnc3cc(C(C)(C)C)n(C)c3n1)C(=O)c1cccc(c1)S(=O)(=O)N2` [IV-91], the EC50 is less than 1 µM and the Emax was greater than 60%.
In the case of `Cc1cccc(C)c1-c1cc2nc(n1)NS(=O)(=O)c1cccc(c1)C(=O)N(Cc1ncc3oc(C4CC4)cc3n1)[C@H](CC13CC(C1)C3)CO2` [Compound I-209], the EC50 lay in the range of 1 to 3 µM. Moreover, the Emax (18-24 hours) is greater than 60%.
For `Cc1cccc(CC(C)C)c1-c1nc2nc(c1C)OC[C@@H](CC(C)(C)C)N(Cc1cnc3oc(C4(C)CC4)cc3n1)C(=O)c1cccc(c1)S(=O)(=O)N2` (atropisomer, axis not shown) [Compound I-257], the EC50 lay in the range of 1 to 3 µM. Where the note is “18-24 hours”, the Emax is greater than 60%.
Consider `Cc1cccc(C)c1-c1cc2nc(n1)NS(=O)(=O)c1cccc(c1)C(=O)N(Cc1cnc3cc(C4(C(F)(F)F)CC4)n(C)c3n1)[C@H](COC(C)C)CO2` [IV-74], for which the EC50 is 1 to 3 µM and the Emax is greater than 60%.
With `Cc1cccc(C)c1-c1cc2nc(n1)NS(=O)(=O)c1cccc(c1)C(=O)N(Cc1cnc3oc(C4(C)CC4)cc3n1)[C@H](C[C@H]1CCCCO1)CO2` [IV-88], the EC50 fell in the range of 3 to 30 µM and the Emax was greater than 60%.
`Cc1cccc(C)c1-c1cc2nc(n1)NS(=O)(=O)c1cccc(c1)C(=O)N(Cc1cnc3oc(C(C)(C)C)cc3n1)[C@H](C[C@@H]1CCCCO1)CO2` [IV-85]: the EC50 was in the range of 1 to 3 µM and the Emax is greater than 60%.
In the case of `Cc1cccc(C)c1-c1cc2nc(n1)NS(=O)(=O)c1cccc(c1)C(=O)N(Cc1cnc3oc([C@H](C)CO)cc3n1)[C@H](CC1(C)CC1)CO2` [IV-52, (11R)-6-(2,6-Dimethylphenyl)-12-[[6-[(1R)-2-hydroxy-1-methyl-ethyl]furo[2,3-b]pyrazin-2-yl]methyl]-11-[(1-methylcyclopropyl)methyl]-2,2-dioxo-9-oxa-2λ^6-thia-3,5,12,19-tetrazatricyclo[12.3.1.14,8]nonadeca-1(18),4(19),5,7,14,16-hexaen-13-one], the EC50 lay within 3 to 30 µM and the Emax is greater than 60%.
Regarding `Cc1cccc(C)c1-c1cc2nc(n1)NS(=O)(=O)c1cccc(c1)C(=O)N(Cc1cnc3oc(C4CC4)cc3n1)[C@@H](C1(C(C)C)CC1)CO2` (single isomer, unassigned) [IV-61, 12-[(6-cyclopropylfuro[2,3-b]pyrazin-2-yl)methyl]-6-(2,6-dimethylphenyl)-11-(1-isopropylcyclopropyl)-2,2-dioxo-9-oxa-2λ^6-thia-3,5,12,19-tetrazatricyclo[12.3.1.14,8]nonadeca-1(18),4(19),5,7,14,16-hexaen-13-one], the EC50 lay in the range of 1 to 3 µM and the Emax was greater than 60%.
The corresponding values for `CCc1cccc(CC)c1-c1nc2nc(c1C)OC[C@@H](CC(C)(C)C)N(Cc1cnc3cc(C4(C)CC4)n(C)c3n1)C(=O)c1cccc(c1)S(=O)(=O)N2` [IV-90] are 1 to 3 µM and greater than 60%.
For `Cc1cccc(CC(C)C)c1-c1nc2nc(c1C)OC[C@@H](COC(C)C)N(Cc1cnc3cc(C(C)(C)C(F)(F)F)n(C)c3n1)C(=O)c1cccc(c1)S(=O)(=O)N2` [IV-101], the EC50 was less than 1 µM and the Emax was greater than 60%.
Consider `CCc1cccc(CC)c1-c1cc2nc(n1)NS(=O)(=O)c1cccc(c1)C(=O)N(Cc1cnc3oc(C4CC4)cc3n1)[C@H](CC(C)(C)C)CO2` [IV-68], for which the EC50 lay in the range of 1 to 3 µM and the Emax is greater than 60%.
For `Cc1cccc(C)c1-c1cc2nc(n1)NS(=O)(=O)c1cccc(c1)C(=O)N(Cc1cnc3cc(C(C)(C)C)n(C)c3n1)[C@@H](CC1CC(F)(F)C1)CO2` (single isomer, unassigned) [IV-55, 12-[(6-tert-Butyl-5-methyl-pyrrolo[2,3-b]pyrazin-3-yl)methyl]-11-[(3,3-difluorocyclobutyl)methyl]-6-(2,6-dimethylphenyl)-2,2-dioxo-9-oxa-2λ^6-thia-3,5,12,19-tetrazatricyclo[12.3.1.14,8]nonadeca-1(18),4(19),5,7,14,16-hexaen-13-one], the EC50 is less than 1 µM and the Emax is greater than 60%.
Take `CCc1cccc(CC)c1-c1cc2nc(n1)NS(=O)(=O)c1cccc(c1)C(=O)N(Cc1cnc3cc(C4(C)CC4)n(C)c3n1)[C@H](CC(C)(C)C)CO2` [IV-71]: the EC50 lay within 1 to 3 µM and the Emax was greater than 60%.
For `Cc1cccc(C(C)C)c1-c1nc2nc(c1C)OC[C@@H](CC(C)(C)C)N(Cc1cnc3cc(C(C)C)n(C)c3n1)C(=O)c1cccc(c1)S(=O)(=O)N2` (atropisomer, axis not shown) [Compound I-179], the EC50 was 3 to 30 µM. The Emax (18-24 hours) is greater than 60%.
As for `Cc1cccc(CC(C)C)c1-c1nc2nc(c1C)OC[C@@H](CC1(C)CC1)N(Cc1cnc3cc(C(C)(C)C)n(C)c3n1)C(=O)c1cccc(n1)S(=O)(=O)N2` [IV-72], the EC50 was 1 to 3 µM and the Emax was greater than 60%.
On the same counts, the results for `Cc1cccc(C)c1-c1cc2nc(n1)NS(=O)(=O)c1cccc(c1)C(=O)N(Cc1cnc3oc(C(C)(C)C)cc3n1)[C@H](CC13CC(C)(C1)C3)CO2` [IV-53, (11R)-12-[(6-tert-butylfuro[2,3-b]pyrazin-2-yl)methyl]-6-(2,6-dimethylphenyl)-11-[(3-methyl-1-bicyclo[1.1.1]pentanyl)methyl]-2,2-dioxo-9-oxa-2λ^6-thia-3,5,12,19-tetrazatricyclo[12.3.1.14,8]nonadeca-1(18),4(19),5,7,14,16-hexaen-13-one] are 1 to 3 µM and greater than 60%.
As to `Cc1cccc(C)c1-c1cc2nc(n1)NS(=O)(=O)c1cccc(c1)C(=O)N(Cc1cnc3cc(C(C)(C)C)n(C)c3n1)[C@H](C1CCCO1)CO2` (single isomer, unassigned) [IV-97], the EC50 is less than 1 µM.
On to `CCc1cccc(CC)c1-c1cc2nc(n1)NS(=O)(=O)c1cccc(c1)C(=O)N(Cc1cnc3cc(C(C)(C)C)n(C)c3n1)[C@H](CC(C)(C)C)CO2` [IV-66], for which the EC50 was less than 1 µM and the Emax was greater than 60%.
The corresponding values for `Cc1cccc(CC(C)C)c1-c1nc2nc(c1C)OC[C@@H]([C@@H]1CCCO1)N(Cc1cnc3cc(C(C)(C)C)n(C)c3n1)C(=O)c1cccc(c1)S(=O)(=O)N2` (atropisomer, axis not shown) [IV-95] are less than 1 µM and greater than 60%.
On the same counts, the results for `Cc1cccc(CC(C)C)c1-c1nc2nc(c1C)OC[C@@H](COC(C)C)N(Cc1cnc3cc(C4(C(F)(F)F)CC4)n(C)c3n1)C(=O)c1cccc(c1)S(=O)(=O)N2` (atropisomer, axis not shown; (P)) [IV-76, (5P,11R)-7-methyl-6-[2-methyl-6-(2-methylpropyl)phenyl]-12-({5-methyl-6-[1-(trifluoromethyl)cyclopropyl]-5H-pyrrolo[2,3-b]pyrazin-3-yl}methyl)-11-[(propan-2-yloxy)methyl]-9-oxa-2λ^6-thia-3,5,12,19-tetraazatricyclo[12.3.1.1∧{4,8}]nonadeca-1(18),4(19),5,7,14,16-hexaene-2,2,13-trione] are less than 1 µM and greater than 60%.
With `Cc1cccc(C)c1-c1cc2nc(n1)NS(=O)(=O)c1cccc(c1)C(=O)N(Cc1ncc3oc(C4CC4)cc3n1)[C@H](CC1(C)CC1)CO2` [Compound I-199], the EC50 is 3 to 30 µM. Further, the Emax (18-24 hours) was greater than 60%.
Take `Cc1cccc(C)c1-c1cc2nc(n1)NS(=O)(=O)c1cccc(c1)C(=O)N(Cc1cnc3oc(C4CC4)cc3n1)[C@H](C[C@@H]1CCCCO1)CO2` [IV-86]: the EC50 was 3 to 30 µM and the Emax is greater than 60%.
